Results: US12479791B2, “Cationic lipid” (Takeda Pharmaceutical Company Limited, priority 2018, dated 2025)

Experiments:
[1] = Analysis of luciferase siRNA-encapsulated lipid nanoparticle (Production Example 1); format: physicochemical; conditions: for Rate of encapsulation / Average particle size: luc siRNA lipid nanoparticle; for siRNA concentration: luc siRNA lipid nanoparticle dispersion after dialysis and filtration; for Average particle size: cationic lipid:DPPC:cholesterol:GS-020=60:10.6:28:1.4, Z-average, dynamic light scattering
Excerpt: (§1) The particle size of the lipid particle (in the composition) can be measured by a known approach. For example, the particle size can be calculated as a Z-average particle size by the cumulant analysis of an autocorrelation function using a particle size measurement apparatus Zetasizer Nano ZS (Malvern Instruments) based on a dynamic light scattering measurement technique. The particle size (average particle size) of the lipid particle (in the composition) is, for example, 10 to 200 nm, preferably 60 to 170 nm.
(§2) The concentration and rate of encapsulation of the nucleic acid (e.g., siRNA or mRNA) in the composition of the present invention can be measured by a known approach. For example, the nucleic acid is fluorescently labeled using Quant-iT™ RiboGreen® (Invitrogen Corp.), and the fluorescence intensity can be measured to determine the concentration and the rate of encapsulation. The concentration of the nucleic acid in the composition can be calculated using a calibration curve prepared from aqueous nucleic acid solutions having known concentrations. The rate of encapsulation can be calculated on the basis of the difference in fluorescence intensity between the presence and absence of addition of Triton-X 100 (surfactant for disrupting the lipid particle). The concentration of the nucleic acid in the composition refers to the total concentration of a nucleic acid encapsulated in the lipid particle and an unencapsulated nucleic acid. The rate of encapsulation refers to the ratio of the nucleic acid encapsulated in the lipid particle to all nucleic acids in the composition.
A lipid mixture (cationic lipid:DPPC:cholesterol:GS-020=60:10.6:28:1.4, molar ratio) was dissolved in 90% of EtOH and 10% of a 25 mM acetate buffer solution (pH 4.0) to obtain a 7.4 mg/ml lipid solution. Luciferase (luc) siRNA (see Table 2) was dissolved in a 25 mM acetate buffer solution (pH 4.0) to obtain a 0.15 mg/ml nucleic acid solution. The obtained lipid solution and nucleic acid solution were mixed at a flow rate ratio of 1 ml/min:5 ml/min at room temperature using Asia microfluidic system (Syrris Ltd.) to obtain a dispersion containing a composition. The obtained dispersion was dialyzed against water at room temperature for 1 hour and against PBS at room temperature for 18 hours using Slyde-A-Lyzer (molecular weight cutoff: 20 K, Thermo Fischer Scientific Inc.). Subsequently, the dialysate was filtered through a 0.2 μm syringe filter (Iwaki) and preserved at 4° C. Hereinafter, the particle size of the lipid particle in the composition was calculated as a Z-average particle size by the cumulant analysis of an autocorrelation function using a particle size measurement apparatus Zetasizer Nano ZS (Malvern Instruments) based on a dynamic light scattering measurement technique.

[2] = system: human liver cancer-derived cell line Hep3B stably expressing luciferase; assay: Transfection of cultured cell with siRNA (luciferase knockdown); format: cell-based; conditions: lipid particle containing luciferase siRNA, 48 hours after addition, read-out: siRNA concentration necessary for 50% knockdown
Protocol: A human liver cancer-derived cell line Hep3B stably expressing luciferase was cultured at a cell density of 6000 cells/well in a 96-well plate. 24 hours later, 10 μl of the lipid particle containing luciferase siRNA was added to the medium. 48 hours after the addition of siRNA, the amount of decrease in expression (knockdown) of luciferase was measured using Picagene LT2.0 kit (Toyobo Co., Ltd.).

[3] = Analysis of luciferase mRNA-encapsulated lipid nanoparticle (Production Example 2); format: physicochemical; conditions: for Rate of encapsulation / Average particle size: luciferase mRNA lipid nanoparticle; for mRNA concentration: luciferase mRNA lipid nanoparticle dispersion after dialysis and filtration; for Average particle size: cationic lipid:DPPC:cholesterol:GS-020=60:10.6:28:1.4
Excerpt: as §1, §2
A lipid mixture (cationic lipid:DPPC:cholesterol:GS-020=60:10.6:28:1.4, molar ratio) was dissolved in 90% of EtOH and 10% of water to obtain an 8.5 mg/ml lipid solution. Luciferase mRNA (TriLink BioTechnologies, Inc.) was dissolved in a 10 mM 2-morpholinoethanesulfonic acid (MES) buffer solution (pH 4.0) to obtain a 0.22 mg/ml nucleic acid solution. The obtained lipid solution and nucleic acid solution were mixed at a flow rate ratio of 3 ml/min:6 ml/min at room temperature using NanoAssemblr apparatus (Precision NanoSystems Inc.) to obtain a dispersion containing a composition. The obtained dispersion was dialyzed against water at room temperature for 1 hour and against PBS at 4° C. for 48 hours using Slyde-A-Lyzer (molecular weight cutoff: 20 K, Thermo Fischer Scientific Inc.). Subsequently, the dialysate was filtered through a 0.2 μm syringe filter (Iwaki) and preserved at 4° C.

FVII gene = assay: Hepatic FVII gene knockdown in CCl4 hepatic fibrosis mouse model; format: in vivo; conditions: male Balb/c mouse, Col1a1 siRNA + FVII siRNA 0.1 + 0.1 mg/kg intravenous, liver 4 days after administration, qPCR normalized with GAPDH
Protocol: (§3) The Col1a1 siRNA-encapsulated lipid nanoparticle was administered at 0.1 mg/kg into the orbital plexus of the vein of each 8-week-old male Balb/c mouse. 3 hours later, CCl4 mixed with corn oil was orally administered at a dose of 0.1 mL/kg (10 mL/kg) by forced single-dose administration (n=6 in each group). 4 days after the administration of the siRNA-encapsulated lipid nanoparticle, the liver was collected from the mouse euthanized under anesthesia, followed by gene expression analysis by quantitative PCR. The Col1a1 gene expression level and the FVII gene expression level were normalized with the expression level of GAPDH. The amount of decrease in Col1a1 gene expression as compared with a siRNA non-administration group was regarded as the rate of knockdown. In mice intravenously given the siRNA-encapsulated lipid nanoparticle formed using the compound of the present invention, the knockdown of the activated stellate cell marker gene Col1a1 gene was strongly observed, as compared with the rate of knockdown of the hepatic parenchymal cell marker gene FVII.

[4] = system: human colorectal cancer-derived cell line HCT116; assay: Transfection of cultured cell with mRNA (luciferase luminescence); format: cell-based; conditions: 10 ng luciferase mRNA, 24 hours
Protocol: A human colorectal cancer-derived cell line HCT116 was cultured at a cell density of 6000 cells/well in a 96-well plate. 24 hours later, 10 μl of the lipid particle containing 10 ng of luciferase mRNA was added to the medium. 24 hours after the addition of mRNA, a reagent of Picagene LT2.0 kit (Toyobo Co., Ltd.) was added to the culture plate of HCT116. The luminescence (count per sec (cps)) of luciferase was measured using a luminescence plate reader EnVision (PerkinElmer, Inc.).

[5] = Analysis of Col1a1 siRNA + FVII siRNA-encapsulated lipid nanoparticle (Production Example 3); format: physicochemical; conditions: for Rate of encapsulation / Particle size: Col1a1 siRNA + FVII siRNA lipid nanoparticle; for Particle size: cationic lipid:DPPC:cholesterol:GS-020=60:10.6:28:1.4; for Col1a1 siRNA + FVII siRNA concentration: lipid nanoparticle dispersion after dialysis and filtration
Excerpt: as §1, §2
A lipid mixture (cationic lipid:DPPC:cholesterol:GS-020=60:10.6:28:1.4, molar ratio) was dissolved in 90% of EtOH and 10% of a 25 mM acetate buffer solution (pH 4.0) to obtain a 7.4 mg/ml lipid solution. siRNA against collagen 1a1 (Col1a1) and siRNA against factor VII (FVII) were dissolved in equal weights in a 25 mM acetate buffer solution (pH 4.0) to obtain a 0.15 mg/ml nucleic acid solution. The sequences of Col1a1 siRNA and FVII siRNA were quoted from Hepatology, […], No. 4, 2015, and Silence, Vol. 1, No. 16, 2010, respectively. The obtained lipid solution and nucleic acid solution were mixed at a flow rate ratio of 1 ml/min:5 ml/min using a microfluidic mixing apparatus NanoAssemblr (Precision NanoSystems Inc.) to obtain a dispersion containing a composition. The obtained dispersion was dialyzed against water at room temperature for 1 hour and against PBS at room temperature for 18 hours using Slyde-A-Lyzer (molecular weight cutoff: 20 K, Thermo Fischer Scientific Inc.). Subsequently, the dialysate was filtered through a 0.2 μm syringe filter (Iwaki) and preserved at 4° C. The siRNA-encapsulated lipid nanoparticle was very favorably formed using the compound of the present invention.

Col1a1 gene = assay: Hepatic collagen 1a1 gene knockdown in CCl4 hepatic fibrosis mouse model; format: in vivo; conditions: male Balb/c mouse, Col1a1 siRNA + FVII siRNA 0.1 + 0.1 mg/kg intravenous, liver 4 days after administration, qPCR normalized with GAPDH, vs siRNA non-administration group
Protocol: as §3

SMILES | Rate of encapsulation [1] | siRNA concentration [1] | Average particle size [1] | IC50 [2] | Rate of encapsulation [3] | mRNA concentration [3] | Average particle size [3] | Rate of FVII knockdown (FVII gene) | Average luminescence (cps) of 3 wells ([4]; Table 9 (PBS control 80)) | Rate of encapsulation [5] | Particle size [5] | Col1a1 siRNA + FVII siRNA concentration [5] | Rate of Col1a1 knockdown (Col1a1 gene) | Average luminescence (cps) of 3 wells ([4]; Table 10 (PBS control 293))
CCCCCCCC(=O)OCC(COC(=O)CCCCCCC)(COC(=O)CCCCN(C)C)COC(=O)C(CCCCCC)CCCCCC [Example 3, 2-(((5-(Dimethylamino)pentanoyl)oxy)methyl)-2-(((2-hexyloctanoyl)oxy)methyl)propane-1,3-diyl dioctanoate] | 96% | 445 µg/mL | 81 nm | 55 nM |  |  |  |  |  |  |  |  |  | 
CCCCCCCC(=O)OCC(COC(=O)CCCCCCC)(COC(=O)CCCCN(C)C)COC(=O)CCC(CCCCC)C(CCCCC)CCCCC (stereo not drawn) [Example 13, 3-((5-(Dimethylamino)pentanoyl)oxy)-2,2-bis((octanoyloxy)methyl)propyl 4,5-dipentyldecanoate] |  |  |  |  | 99% | 155 µg/mL | 119 nm | 15% | 269467 cps | 97% | 103 nm | 122 µg/mL | 86% | 
CCCCCCCC(=O)OCC(COC(=O)CCCCCCC)(COC(=O)CCCCN(C)C)COC(=O)CCC(CCCCCCC)CCCCCCC [Example 1, 3-((5-(Dimethylamino)pentanoyl)oxy)-2,2-bis((octanoyloxy)methyl)propyl 4-heptylundecanoate] |  |  |  |  | 96% | 145 µg/mL | 112 nm | 0% |  | 98% | 111 nm | 128 µg/mL | 86% | 110733 cps
CCCCCCCC(=O)OCC(COC(=O)CCCCCCC)(COC(=O)CCCN(C)C)COC(=O)C(CCCCCC)CCCCCC [Example 2, 2-(((4-(Dimethylamino)butanoyl)oxy)methyl)-2-(((2-hexyloctanoyl)oxy)methyl)propane-1,3-diyl dioctanoate] | 96% | 415 µg/mL | 71 nm | 14 nM |  |  |  |  |  |  |  |  |  | 

Now from value to molecule, other results behind:

Rate of encapsulation [1] | siRNA concentration [1] | Average particle size [1] | IC50 [2] | SMILES | Rate of encapsulation [3] | mRNA concentration [3] | Average particle size [3] | Rate of FVII knockdown (FVII gene) | Average luminescence (cps) of 3 wells ([4]; Table 9 (PBS control 80)) | Rate of encapsulation [5] | Particle size [5] | Col1a1 siRNA + FVII siRNA concentration [5] | Rate of Col1a1 knockdown (Col1a1 gene) | Average luminescence (cps) of 3 wells ([4]; Table 10 (PBS control 293))
91% | 121 µg/mL | 73 nm | 190 nM | CCCCCCC(=O)OCC(COC(=O)CCCN(C)C)(COC(=O)C(CCCCC)CCCCC)COC(=O)C(CCCCC)CCCCC [Example 4, 2-(((4-(Dimethylamino)butanoyl)oxy)methyl)-2-((heptanoyloxy)methyl)propane-1,3-diyl bis(2-pentylheptanoate)] |  |  |  |  |  |  |  |  |  | 
93% | 389 µg/mL | 77 nm | 41 nM | CCCCCCCC(=O)OCC(COC(=O)CCCN(C)C)(COC(=O)C(CCCCCC)CCCCCC)COC(=O)C(CCCCCC)CCCCCC [Example 6, 2-(((4-(Dimethylamino)butanoyl)oxy)methyl)-2-((octanoyloxy)methyl)propane-1,3-diyl bis(2-hexyloctanoate)] |  |  |  |  |  |  |  |  |  | 
97% | 376 µg/mL | 73 nm | 1.2 nM | CCCCCCCC(=O)OCC(COC(=O)CCCCN(C)C)(COC(=O)C(CCCCCC)CCCCCC)COC(=O)C(CCCCCC)CCCCCC [Example 7, 2-(((5-(Dimethylamino)pentanoyl)oxy)methyl)-2-((octanoyloxy)methyl)propane-1,3-diyl bis(2-hexyloctanoate)] |  |  |  |  |  |  |  |  |  | 
96% | 120 µg/mL | 83 nm | 28 nM | CCCCCCC(=O)OCC(COC(=O)CCCCN(C)C)(COC(=O)C(CCCCC)CCCCC)COC(=O)C(CCCCC)CCCCC [Example 5, 2-(((5-(Dimethylamino)pentanoyl)oxy)methyl)-2-((heptanoyloxy)methyl)propane-1,3-diyl bis(2-pentylheptanoate)] |  |  |  |  |  |  |  |  |  | 
